According to patent US20060166995A1, “Piperidine-n-oxide-derivatives” (ALTANA PHARMA AG, priority 2002, published 2006):

Experiments:
PDE4 = assay: Inhibition of PDE4 activity (cytosol from human neutrophils, [3H]cAMP hydrolysis); type: biochemical; settings: 0.5 μM cAMP, Motapizone (1 μM) included to suppress PDE3 activity
Procedure: Method for Measuring Inhibition of PDE4 Activity
PDE4 activity was determined as described by Thompson et al. (Adv Cycl Nucl Res 10: 69-92, 1979) with some modifications (Bauer and Schwabe, Naunyn-Schmiedeberg's Arch Pharmacol 311: 193-198, 1980). At a final assay volume of 200 μl (96 well microtiter plates) the assay mixture contained 20 mM Tris (pH 7.4), 5 mM MgCl2, 0.5 μM cAMP, [^3H]cAMP (about 30,000 cpm/assay), the test compound and an aliquot of cytosol from human neutrophils which mainly contains PDE4 activity as described by Schudt et al. (Naunyn-Schmiedeberg's Arch Pharmacol 344: 682-690, 1991); the PDE3-specific inhibitor Motapizone (1 μM) was included to suppress PDE3 activity originating from contaminating platelets. Serial dilutions of the compounds were prepared in DMSO and further diluted 1:100 (v/v) in the assays to obtain the desired final concentrations of the inhibitors at a DMSO concentration of 1 % (v/v) which by itself only slightly affected PDE4 activity.
After preincubation for 5 min at 37° C., the reaction was started by the addition of substrate (cAMP) and the assays were incubated for further 15 min at 37° C. 50 μl of 0.2 N HCl was added to stop the reaction and the assays were left on ice for about 10 min. Following incubation with 25 μg 5′-nucleotidase (Crotalus atrox snake venom) for 10 min at 37° C., the assays were loaded on QAE Sephadex A-25 (1 ml bed volume). The columns were eluted with 2 ml of 30 mM ammonium formiate (pH 6.0) and the eluate was counted for radioactivity. Results were corrected for blank values (measured in the presence of denatured protein) which were below 5% of total radioactivity. […] The IC50-values for the compounds according to the invention for the inhibition of the PDE4 activity were determined from the concentration-inhibition curves by nonlinear-regression.
The inhibitory values determined for the compounds according to the invention follow from the following table A, which the numbers of the compounds correspond to the numbers of the examples.

## COc1ccc(C2=NN(C3CC[N+]([O-])(CC(N)=O)CC3)C(=O)C3CCCCC23)cc1OC (stereo not drawn) [compound 3]
PDE4
  Inhibition of PDE4 acitivity [measured as −logIC50 (mol/l)]: 7.5
other
  melting point: 176 to 177 °C

## COc1ccc(C2=NN(C3CC[N+]([O-])(CC(N)=O)CC3)C(=O)C3CC=CCC23)cc1OC [compound 1, 2-{4-[(4aS,8aR)-4-(3,4-Dimethoxy-phenyl)-1-oxo-4a,5,8,8a-tetrahydro-1H-phthalazin-2-yl]-1-oxy-piperidin-1-yl}-acetamide]
PDE4
  Inhibition of PDE4 acitivity [measured as −logIC50 (mol/l)]: 8.31
other
  melting point: 159 to 161 °C

## COc1ccc(C2=NN(C3CC[N+]([O-])(CC(=O)NC(C)C)CC3)C(=O)C3CC=CCC23)cc1OC [compound 2, 2-{4-[(4aS,8aR)-4-(3,4-Dimethoxy-phenyl)-1-oxo-4a,5,8,8a-tetrahydro-1H-phthalazin-2yl]-1-oxy-piperidin-1-yl}-N-isopropyl-acetamide]
PDE4
  Inhibition of PDE4 acitivity [measured as −logIC50 (mol/l)]: 9.3
other
  melting point: 130 to 132 °C
